Data taken from US20110294901A1, “FINELY PULVERIZED PHARMACEUTICAL COMPOSITION” (priority 2009, published 2011).

How the values were obtained:
[1] = Particle size measurement with a particle size distribution measuring device (Microtruck X100); type: physicochemical
Experimental: Preferably, the particles of the drug contained in the composition according to the present invention have a cumulative 50% particle diameter of not more than 1.5 μm and a cumulative 90% particle diameter of not more than 3.0 μm. More preferably, the cumulative 50% particle diameter and the cumulative 90% particle diameter are not more than 1.0 μm and not more than 2.0 μm, respectively. In the present invention, when a cumulative curve is determined by presuming the total volume of a powder population, of which the particle size distribution is analyzed, to be 100%, the particle diameter of a point at which the cumulative curve is 50% and the particle diameter of a point at which the cumulative curve is 90% are “cumulative 50% particle diameter” and “cumulative 90% particle diameter” (μm), respectively.
The diameters of drug particles obtained by the grinding can be measured by a laser diffraction/scattering-type particle size distribution measuring machine. Specifically, for example, Microtruck (tradename) sold by NIKKISO Co., Ltd. is preferred. […]
The cumulative 50% particle diameter of bulk drug particles in the fine granules in Examples 4 and 5 and Comparative Examples 3 to 5 was measured with a particle size distribution measuring device (manufacturer: NIKKISO Co., Ltd., model: Mircotruck X100).

[2] = Dissolution test (1), paddle method, 1% aqueous polysorbate 80; type: physicochemical; settings: three hr after the start of the dissolution; 50 mg drug, 100 rpm, 900 mL 1% aqueous polysorbate 80
Experimental: A dissolution test was carried out for the suspension produced in Example 1 (grinding conditions 3) and a liquid obtained by suspending the ground bulk drug obtained in Comparative Example 1 in water.
Each of the suspensions in an amount corresponding to 50 mg of the 22β-methoxyolean-12-ene-3β,24(4β)-diol bulk drug was accurately weighed, and a test was carried out by a dissolution test method, second method (paddle method), specified in Japanese Pharmacopoeia, at a rotation speed of 100 rpm (rotation speed of paddle) using 900 mL of a 1% aqueous polysorbate 80 solution as a test solution. After 15 min, 30 min, 60 min, and 180 min from the start of dissolution, 5 mL of the test solution was collected and was filtered by a membrane filter having a pore diameter of 0.2 μm to give measurement samples. The samples were analyzed by high-performance liquid chromatography (manufacturer: Shimadzu Seisakusho Ltd., model:LC-10ATvp) to determine dissolution rate for each sample.

## CO[C@@H]1CC(C)(C)C[C@H]2C3=CC[C@@H]4[C@@]5(C)CC[C@H](O)[C@](C)(CO)[C@@H]5CC[C@@]4(C)[C@]3(C)CC[C@@]12C [22β-methoxyolean-12-ene-3β,24(4β)-diol]
[1]; bulk drug before grinding
  cumulative 50% particle diameter: about 50 μm

## CO[C@@H]1CC(C)(C)C[C@H]2C3=CC[C@@H]4[C@@]5(C)CC[C@H](O)[C@](C)(CO)[C@@H]5CC[C@@]4(C)[C@]3(C)CC[C@@]12C [Comparative Example 1, 22β-Methoxyolean-12-ene-3β, 24(4β)-diol]
[1]; ground with jet mill at 0.54 MPa, dispersed in 0.01% aqueous sodium laurylsulfate solution
  cumulative 50% particle diameter of the ground bulk drug: 2.5 μm
[2]
  dissolution rate: 10%
